One assay relates to HCC70 cells. Kind of assay: Inhibition of cell proliferation (CyQUANT Direct), HCC70. The settings on record: HCC70, 72-hour. The class given is cell-based, human. On the procedure:
(§1) HCC70 and MB453 cells are cell lines derived from human triple negative breast cancer COV318 and COV504 cells are cell lines derived from human ovarian cancer. Representative compounds of the invention were tested at different concentrations (from 4 μM to 126.4 pM; 0.5 log serial dilutions) for their ability to inhibit the proliferation of each of these cell lines. Known CDK inhibitors dinaciclib or N-((1S,3R)-3-((5-chloro-4-(1H-indol-3-yl) pyrimidin-2-yl)amino)cyclohexyl)-5-((E)-4-(dimethylamino)but-2-enamido)picolinamide and triptolide were used as positive controls. Cells were seeded at approximately 2,000 cells/well and grown in ATCC-formulated RPMI-1640 Medium (ATCC 30-2001)+10% FBS. The cells were cultured at 37° C. in a humidified chamber in the presence of 5% CO2. Proliferation assays were conducted over a 72-hour time period. CyQUANT® Direct Cell Proliferation Assay (Life Technologies, Chicago, Ill. USA) was used to assess the anti-proliferative effects of the compounds following manufacturer's directions and utilizing the reagents supplied with the CyQUANT® Direct Cell kit.

Another assay concerns COV318 cells. Kind of assay: Inhibition of cell proliferation (CyQUANT Direct), COV318. The settings on record: COV318, 72-hour. The class given is cell-based, human. On the procedure:
as §1

The next assay deals with COV504 cells. The assay is described as follows: Inhibition of cell proliferation (CyQUANT Direct), COV504. The class given is cell-based, human. The settings on record: COV504, 72-hour. On the procedure: as §1
For a further assay, the system named is MB453 cells. Kind of assay: Inhibition of cell proliferation (CyQUANT Direct), MB453. The class given is cell-based, human. The settings on record: MB453, 72-hour. On the procedure:
as §1

The target of the next assay is CDK2/Cyclin E1 complex (Homo sapiens, UniProt P24941). The assay is described as follows: CDK2 kinase inhibition assay (Caliper/LabChip EZ Reader).
Assay [1] deals with CDK7/Cyclin H/MAT1 complex (Homo sapiens, UniProt P50613). Kind of assay: CDK7 kinase inhibition assay (Caliper/LabChip EZ Reader).
CDK7/Cyclin H/MAT1 complex, sequence (P50613 whole entry): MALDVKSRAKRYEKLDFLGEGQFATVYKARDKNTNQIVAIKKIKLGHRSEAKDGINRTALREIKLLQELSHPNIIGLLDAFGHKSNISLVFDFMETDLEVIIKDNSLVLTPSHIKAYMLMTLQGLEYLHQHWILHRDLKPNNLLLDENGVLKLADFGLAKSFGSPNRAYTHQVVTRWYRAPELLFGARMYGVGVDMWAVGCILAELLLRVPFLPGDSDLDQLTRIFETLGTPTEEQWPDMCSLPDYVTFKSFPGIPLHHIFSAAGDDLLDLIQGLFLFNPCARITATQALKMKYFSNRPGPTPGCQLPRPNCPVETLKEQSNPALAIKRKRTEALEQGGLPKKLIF
CDK7/Cyclin H/MAT1 complex, sequence (P51946 whole entry partner): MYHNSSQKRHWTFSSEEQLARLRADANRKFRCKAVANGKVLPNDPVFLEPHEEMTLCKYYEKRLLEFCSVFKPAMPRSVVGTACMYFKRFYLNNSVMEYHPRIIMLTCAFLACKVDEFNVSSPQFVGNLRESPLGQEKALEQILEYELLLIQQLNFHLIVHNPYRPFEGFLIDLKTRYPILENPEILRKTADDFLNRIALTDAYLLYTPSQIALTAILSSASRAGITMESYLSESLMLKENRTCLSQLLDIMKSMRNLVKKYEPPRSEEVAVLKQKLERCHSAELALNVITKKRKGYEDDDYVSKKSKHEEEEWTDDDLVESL
CDK7/Cyclin H/MAT1 complex, sequence (P51948 whole entry partner): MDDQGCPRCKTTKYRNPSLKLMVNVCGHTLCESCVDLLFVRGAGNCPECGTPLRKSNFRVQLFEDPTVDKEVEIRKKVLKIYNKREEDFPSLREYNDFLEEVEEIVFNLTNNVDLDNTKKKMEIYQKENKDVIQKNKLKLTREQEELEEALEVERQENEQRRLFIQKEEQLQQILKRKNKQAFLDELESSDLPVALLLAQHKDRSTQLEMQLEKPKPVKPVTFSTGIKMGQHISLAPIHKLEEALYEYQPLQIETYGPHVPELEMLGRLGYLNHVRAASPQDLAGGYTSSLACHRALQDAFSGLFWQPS
Description: (§2) Compounds described herein were assayed for inhibition of CDK7, CDK9, CDK12, and CDK2 activity at Biortus Biosciences (Jiangyin, Jiangsu Province, P.R. of China) using kinase assays for each CDK developed with a Caliper/LabChip EZ Reader (Perkin Elmer, Waltham, Mass.).
(§3) Furthermore, the CDK9 inhibition assay used CDK9/Cyclin T1 complex (8 nM) and “5-FAM-CDK9tide” peptide substrate (2 μM, synthesized fluorophore-labeled peptide with the following sequence: 5-FAM-GSRTPMY-NH2 (SEQ ID NO:2) where 5-FAM is defined above and NH2 signifies a C-terminal amide) with 10 mM MgCl2 in the buffer composition listed above. The CDK12 inhibition assay used CDK12 (aa686-1082)/Cyclin K complex (50 nM) and “5-FAM-CDK9tide” (2 μM) as defined above, with 2 mM MgCl2 in the buffer composition above. Additionally, the CDK2 inhibition assay used CDK2/Cyclin E1 complex (0.5 nM) and “5-FAM-CDK7tide” (2 μM; defined above) with 2 mM MgCl2 in the buffer composition above.
(§4) The incubation period at 27° C. for each CDK inhibition assay was chosen such that the fraction of phosphorylated peptide product produced in each assay, relative to the total peptide concentration, was approximately 20% (±5%) for the uninhibited kinase (35 min. for CDK7, 35 min. for CDK2, 3 hr. for CDK12, 15 min. for CDK9).
Another assay concerns the target CDK9/Cyclin T1 complex (Homo sapiens, UniProt P50750). Kind of assay: CDK9 kinase inhibition assay (Caliper/LabChip EZ Reader).
Assay [2] has as its target CDK12 (aa686-1082)/Cyclin K complex (Homo sapiens, UniProt Q9NYV4). Kind of assay: CDK12 kinase inhibition assay (Caliper/LabChip EZ Reader).
Description: as §2, §3, §4

The values that follow come from patent US11311542B2, “Inhibitors of cyclin dependent kinase 7 (CDK7)” (Syros Pharmaceuticals, Inc., priority 2018, dated 2022).

pIC50: −log10 of the molar value. Read-outs that look alike come from different tables or passages of the source. Some results are limits rather than exact numbers.

CDK9/Cyclin T1 complex, sequence (P50750 whole entry, the tested form may be a part): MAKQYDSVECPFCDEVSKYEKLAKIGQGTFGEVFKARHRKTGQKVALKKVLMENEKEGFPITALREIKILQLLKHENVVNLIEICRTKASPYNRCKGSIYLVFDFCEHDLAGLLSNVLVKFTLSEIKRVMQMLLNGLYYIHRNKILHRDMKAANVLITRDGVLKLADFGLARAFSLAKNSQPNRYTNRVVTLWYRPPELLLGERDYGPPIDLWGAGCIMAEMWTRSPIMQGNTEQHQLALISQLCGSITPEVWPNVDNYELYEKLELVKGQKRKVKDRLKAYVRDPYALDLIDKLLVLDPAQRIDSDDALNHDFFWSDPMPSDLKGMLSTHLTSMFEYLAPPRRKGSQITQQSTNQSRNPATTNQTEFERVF
CDK9/Cyclin T1 complex, sequence (O60563 whole entry partner, the tested form may be a part): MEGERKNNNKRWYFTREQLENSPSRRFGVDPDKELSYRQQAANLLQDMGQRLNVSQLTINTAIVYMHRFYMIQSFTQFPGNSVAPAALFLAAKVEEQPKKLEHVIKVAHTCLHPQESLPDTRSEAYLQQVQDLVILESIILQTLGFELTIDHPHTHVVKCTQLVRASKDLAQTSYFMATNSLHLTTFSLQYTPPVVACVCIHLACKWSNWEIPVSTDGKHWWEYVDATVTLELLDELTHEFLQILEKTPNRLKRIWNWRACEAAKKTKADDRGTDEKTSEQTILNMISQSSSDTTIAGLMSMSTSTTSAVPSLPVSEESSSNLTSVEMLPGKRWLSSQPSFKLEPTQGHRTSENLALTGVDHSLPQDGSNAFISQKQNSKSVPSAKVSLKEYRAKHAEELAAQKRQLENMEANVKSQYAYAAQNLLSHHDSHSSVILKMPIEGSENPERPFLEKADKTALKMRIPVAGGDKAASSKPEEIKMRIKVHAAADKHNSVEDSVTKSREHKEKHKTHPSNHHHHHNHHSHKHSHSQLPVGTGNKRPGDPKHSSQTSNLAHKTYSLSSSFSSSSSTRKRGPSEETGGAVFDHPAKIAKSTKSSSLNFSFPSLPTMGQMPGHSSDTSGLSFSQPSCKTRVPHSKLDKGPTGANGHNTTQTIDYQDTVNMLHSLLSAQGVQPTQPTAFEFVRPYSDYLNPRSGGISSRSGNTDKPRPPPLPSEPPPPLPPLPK
CDK12 (aa686-1082)/Cyclin K complex, sequence (Q9NYV4 686-1082): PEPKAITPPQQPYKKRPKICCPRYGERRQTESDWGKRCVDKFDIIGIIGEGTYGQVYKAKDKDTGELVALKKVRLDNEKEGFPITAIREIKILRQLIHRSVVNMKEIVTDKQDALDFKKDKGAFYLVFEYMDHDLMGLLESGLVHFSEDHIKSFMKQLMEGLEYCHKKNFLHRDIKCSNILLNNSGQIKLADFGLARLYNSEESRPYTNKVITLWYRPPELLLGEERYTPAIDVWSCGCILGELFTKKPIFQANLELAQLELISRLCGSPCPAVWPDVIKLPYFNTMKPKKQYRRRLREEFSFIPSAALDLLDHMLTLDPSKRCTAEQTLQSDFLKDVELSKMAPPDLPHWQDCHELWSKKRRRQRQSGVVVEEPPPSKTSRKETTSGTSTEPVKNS
CDK12 (aa686-1082)/Cyclin K complex, sequence (O75909 whole entry partner, the tested form may be a part): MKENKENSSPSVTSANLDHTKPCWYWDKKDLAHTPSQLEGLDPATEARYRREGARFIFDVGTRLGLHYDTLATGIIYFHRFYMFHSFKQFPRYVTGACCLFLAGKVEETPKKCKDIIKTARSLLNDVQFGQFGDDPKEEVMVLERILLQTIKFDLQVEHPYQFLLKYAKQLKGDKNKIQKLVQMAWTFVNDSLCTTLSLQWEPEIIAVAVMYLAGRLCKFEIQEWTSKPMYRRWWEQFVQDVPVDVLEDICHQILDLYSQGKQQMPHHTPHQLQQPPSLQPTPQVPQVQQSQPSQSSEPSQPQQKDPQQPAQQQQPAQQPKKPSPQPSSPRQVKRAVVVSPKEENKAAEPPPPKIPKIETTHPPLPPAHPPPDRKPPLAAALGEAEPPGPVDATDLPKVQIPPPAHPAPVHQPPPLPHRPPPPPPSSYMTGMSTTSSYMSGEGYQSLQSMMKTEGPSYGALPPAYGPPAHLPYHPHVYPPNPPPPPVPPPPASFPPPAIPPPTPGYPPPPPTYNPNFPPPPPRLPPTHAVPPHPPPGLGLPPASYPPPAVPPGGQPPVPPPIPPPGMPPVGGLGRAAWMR
Description for CDK2/Cyclin E1 complex: as §2, §3, §4
Description for CDK9/Cyclin T1 complex: as §2, §3, §4

Regarding `C[C@H]1CC[C@H](Nc2ncc(C(F)(F)F)c(-c3c[nH]c4nc(-c5nnnn5C)ccc34)n2)CN1` [Compound 165, N-[(3S,6S)-6-methyl-3-piperidyl]-4-[6-(1-methyltetrazol-5-yl)-1H-pyrrolo[2,3-b]pyridin-3-yl]-5-(trifluoromethyl)pyrimidin-2-amine], the pIC50 was less than 6.00 in the assay on HCC70 cells (Homo sapiens); less than 6.00 with COV318 cells (Homo sapiens); 6.00 to 6.30 with COV504 cells (Homo sapiens); 6.00 to 6.30 in the assay on MB453 cells (Homo sapiens); less than 6.30 on CDK2/Cyclin E1 complex; 7.00 to 7.52 in assay [1]. The negative logarithm of the IC50 (pIC50) (at CDK9/Cyclin T1 complex; in assay [2]) was less than 6.30 each time.
Turning to “3-methyl-4-(3-(2-(methylthio)-5-(trifluoromethyl)pyrimidin-4-yl)-1-(phenylsulfonyl)-1H-pyrrolo[2,3-b]pyridin-6-yl)isoxazole [Compound 147]”, the pIC50 is greater than 7.00 in the assay with HCC70 cells; less than 6.00 in the assay on COV318 cells; greater than 7.00 with COV504 cells; greater than 7.00 with MB453 cells; less than 6.30 on CDK2/Cyclin E1 complex (read-out: CDK2 IC50, CDK2/Cyclin E1 0.5 nM, ATP 2 mM, 35 min at 27° C.); greater than 7.52 in assay [1] (read-out: CDK7 IC50, CDK7/Cyclin H/MAT1 6 nM, ATP 2 mM, 35 min at 27° C.). The pIC50 at CDK9/Cyclin T1 complex (read-out: CDK9 IC50, CDK9/Cyclin T1 8 nM, ATP 2 mM, 15 min at 27° C.) was less than 6.30; in assay [2] (read-out: CDK12 IC50, CDK12 (aa686-1082)/Cyclin K 50 nM, ATP 2 mM, 3 hr at 27° C.), less than 6.30.
As to `Cc1noc(C)c1-c1ccc2c(-c3nc(N[C@H]4CC[C@H](C)NC4)ncc3C(F)(F)F)c[nH]c2n1` [Compound 124, 4-[6-(3,5-dimethylisoxazol-4-yl)-1H-pyrrolo-[2,3-b]-pyridin-3-yl]-N-[(3S,6S)-6-methyl-3-piperidyl]-5-(trifluoromethyl)pyrimidin-2-amine], the pIC50 in the assay on HCC70 cells (Homo sapiens) was greater than 7.00; with COV318 cells (Homo sapiens), greater than 7.00; in the assay with COV504 cells (Homo sapiens) it was greater than 7.00; in the assay with MB453 cells (Homo sapiens) it was greater than 7.00; on CDK2/Cyclin E1 complex, less than 6.30; in assay [1] it was greater than 7.52. The pIC50 (at CDK9/Cyclin T1 complex; in assay [2]) was less than 6.30 throughout.
Consider `Cc1nocc1-c1ccc2c(-c3nc(N[C@@H]4CC[C@@H](C)NC4)ncc3C(F)(F)F)c[nH]c2n1` [Compound 157, 4-[6-(3-methylisoxazol-4-yl)-1H-pyrrolo[2,3-b]pyridin-3-yl]-N-[(3R,6R)-6-methyl-3-piperidyl]-5-(trifluoromethyl)pyrimidin-2-amine], for which the pIC50 with HCC70 cells (Homo sapiens) is greater than 7.00; in the assay with COV318 cells (Homo sapiens) it was greater than 7.00; with COV504 cells (Homo sapiens), greater than 7.00; in the assay on MB453 cells (Homo sapiens), greater than 7.00; against CDK2/Cyclin E1 complex it was less than 6.30; in assay [1] it was greater than 7.52. The negative logarithm of the IC50 (pIC50) (against CDK9/Cyclin T1 complex; in assay [2]) was less than 6.30 in each case.
As for `Cc1nsc(-c2ccc3c(-c4nc(N[C@H]5CCCNC5)ncc4C(F)(F)F)c[nH]c3c2)n1` [Compound 130], the pIC50 with HCC70 cells (Homo sapiens) was 6.30 to 7.00; with COV318 cells (Homo sapiens), 6.30 to 7.00; in the assay with COV504 cells (Homo sapiens) it was 6.30 to 7.00; in the assay on MB453 cells (Homo sapiens) it was 6.30 to 7.00; against CDK2/Cyclin E1 complex it was less than 6.30; in assay [1] it was greater than 7.52. Further, the pIC50 (on CDK9/Cyclin T1 complex; in assay [2]) was less than 6.30 in each case.
As to `CC1(C)CNC[C@@H](Nc2ncc(C(F)(F)F)c(-c3c[nH]c4nc(-c5nccs5)ccc34)n2)C1` [Compound 137, N-[(3S)-5,5-dimethyl-3-piperidyl]-4-(6-thiazol-2-yl-1H-pyrrolo[2,3-b]pyridin-3-yl)-5-(trifluoromethyl)pyrimidin-2-amine], the pIC50 is greater than 7.00 in the assay with HCC70 cells (Homo sapiens); greater than 7.00 in the assay with COV318 cells (Homo sapiens); greater than 7.00 in the assay on COV504 cells (Homo sapiens); greater than 7.00 in the assay on MB453 cells (Homo sapiens); less than 6.30 against CDK2/Cyclin E1 complex; greater than 7.52 in assay [1]. The pIC50 (on CDK9/Cyclin T1 complex; in assay [2]) was less than 6.30 throughout.
Regarding `Cc1nc(-c2ccc3c(-c4nc(N[C@H]5CC[C@H](C)NC5)ncc4C(F)(F)F)c[nH]c3n2)no1` [Compound 162, 4-[6-(5-methyl-1,2,4-oxadiazol-3-yl)-1H-pyrrolo[2,3-b]pyridin-3-yl]-N-[(3S,6S)-6-methyl-3-piperidyl]-5-(trifluoromethyl)pyrimidin-2-amine], the negative logarithm of the IC50 (pIC50) in the assay on HCC70 cells (Homo sapiens) is 6.30 to 7.00; with COV318 cells (Homo sapiens), less than 6.00; in the assay on COV504 cells (Homo sapiens) it was greater than 7.00; in the assay on MB453 cells (Homo sapiens) it was 6.00 to 6.30; on CDK2/Cyclin E1 complex it was less than 6.30; in assay [1], greater than 7.52. Also, the pIC50 (at CDK9/Cyclin T1 complex; in assay [2]) was less than 6.30 each time.
In the case of `Cc1noc(-c2ccc3c(-c4nc(N[C@H]5CCCNC5)ncc4C(F)(F)F)c[nH]c3n2)n1` [Compound 136, 4-[6-(3-methyl-1,2,4-oxadiazol-5-yl)-1H-pyrrolo[2,3-b]pyridin-3-yl]-N-[(3S)-3-piperidyl]-5-(trifluoromethyl)pyrimidin-2-amine], the pIC50 is greater than 7.00 with HCC70 cells (Homo sapiens); less than 6.00 in the assay with COV318 cells (Homo sapiens); greater than 7.00 with COV504 cells (Homo sapiens); greater than 7.00 in the assay on MB453 cells (Homo sapiens); less than 6.30 on CDK2/Cyclin E1 complex; greater than 7.52 in assay [1]. In addition, the pIC50 (on CDK9/Cyclin T1 complex; in assay [2]) was less than 6.30 each time.
For `Cc1noc(C)c1-c1cc2[nH]cc(-c3nc(N[C@H]4CCCNC4)ncc3C(F)(F)F)c2cc1F` [Compound 134, 4-(6-(3,5-dimethylisoxazol-4-yl)-5-fluoro-1H-indol-3-yl)-N—((S)-piperidin-3-yl)-5-(trifluoromethyl)pyrimidin-2-amine], the pIC50 with HCC70 cells (Homo sapiens) is greater than 7.00; with COV318 cells (Homo sapiens) it was greater than 7.00; with COV504 cells (Homo sapiens), greater than 7.00; in the assay with MB453 cells (Homo sapiens) it was greater than 7.00; at CDK2/Cyclin E1 complex, less than 6.30; in assay [1], greater than 7.52. The pIC50 (at CDK9/Cyclin T1 complex; in assay [2]) was less than 6.30 in each case.
Turning to `Cc1nc(-c2ccc3c(-c4nc(N[C@H]5CCCNC5)ncc4C(F)(F)F)n[nH]c3n2)no1` [Compound 168, 4-[6-(5-methyl-1,2,4-oxadiazol-3-yl)-1H-pyrazolo[3,4-b]pyridin-3-yl]-N-[(3S)-3-piperidyl]-5-(trifluoromethyl)pyrimidin-2-amine], the pIC50 with HCC70 cells (Homo sapiens) is greater than 7.00; in the assay on COV318 cells (Homo sapiens) it was greater than 7.00; with COV504 cells (Homo sapiens), greater than 7.00; in the assay on MB453 cells (Homo sapiens), greater than 7.00; on CDK2/Cyclin E1 complex it was less than 6.30; in assay [1], greater than 7.52. Also, the pIC50 (against CDK9/Cyclin T1 complex; in assay [2]) was less than 6.30 throughout.
`Cc1noc(C)c1-c1ccc2c(-c3nc(N[C@H]4CCCNC4)ncc3C(F)(F)F)c[nH]c2n1` [Compound 101, 4-[6-(3,5-dimethylisoxazol-4-yl)-1H-pyrrolo-[2,3-b]-pyridin-3-yl]-N-[(3S)-3-piperidyl]-5-(trifluoromethyl)pyrimidin-2-amine]: the pIC50 was greater than 7.00 in the assay with HCC70 cells (Homo sapiens); greater than 7.00 in the assay with COV318 cells (Homo sapiens); greater than 7.00 in the assay on COV504 cells (Homo sapiens); greater than 7.00 with MB453 cells (Homo sapiens); less than 6.30 at CDK2/Cyclin E1 complex; greater than 7.52 in assay [1]. The pIC50 is less than 6.30 against CDK9/Cyclin T1 complex and 6.30 to 7.00 in assay [2].
On to `FC(F)(F)c1cnc(N[C@H]2CCCNC2)nc1-c1c[nH]c2cc(-c3ncco3)ccc12` [Compound 110, (S)-4-(6-(oxazol-2-yl)-1H-indol-3-yl)-N-(piperidin-3-yl)-5-(trifluoromethyl)pyrimidin-2-amine], for which the pIC50 is greater than 7.00 with HCC70 cells (Homo sapiens); 6.30 to 7.00 with COV318 cells (Homo sapiens); greater than 7.00 in the assay with COV504 cells (Homo sapiens); greater than 7.00 in the assay on MB453 cells (Homo sapiens); less than 6.30 against CDK2/Cyclin E1 complex; greater than 7.52 in assay [1]. Further, the pIC50 (at CDK9/Cyclin T1 complex; in assay [2]) was less than 6.30 in each case.
On to `Cc1nocc1-c1ccc2c(-c3nc(N[C@H]4CCCNC4)ncc3C(F)(F)F)c[nH]c2c1` [Compound 114, (S)-4-(6-(3-methylisoxazol-4-yl)-1H-indol-3-yl)-N-(piperidin-3-yl)-5-(trifluoromethyl)pyrimidin-2-amine], for which the negative-log IC50 (pIC50) with HCC70 cells (Homo sapiens) is greater than 7.00; with COV318 cells (Homo sapiens), greater than 7.00; in the assay on COV504 cells (Homo sapiens), greater than 7.00; with MB453 cells (Homo sapiens), greater than 7.00; against CDK2/Cyclin E1 complex it was less than 6.30; in assay [1], greater than 7.52. Besides, the pIC50 (against CDK9/Cyclin T1 complex; in assay [2]) was less than 6.30 each time.
`Cc1noc(C)c1-c1ccc2c(-c3nc(N[C@@H]4CNCC(C)(C)C4)ncc3C(F)(F)F)c[nH]c2c1` [Compound 102]: the pIC50 with HCC70 cells (Homo sapiens) was greater than 7.00; in the assay on COV318 cells (Homo sapiens), 6.30 to 7.00; with COV504 cells (Homo sapiens), greater than 7.00; in the assay on MB453 cells (Homo sapiens), greater than 7.00; against CDK2/Cyclin E1 complex it was less than 6.30; in assay [1], greater than 7.52. In addition, the pIC50 (against CDK9/Cyclin T1 complex; in assay [2]) was less than 6.30 in each case.
